The values below come from ChEMBL document CHEMBL1201862, “PubChem BioAssay data set” (2004).

Holding throughout (assay): DTP human tumour cell line panel, 48 h
Test [1] deals with RXF 393.
The test system of test [2] is MDA-MB-435.
For test [3], the system named is MCF7.
In test [4] the test system is SK-MEL-5.
Test [5] has as its system A498.
Test [6] has as its system MDA-N.
Test [7] relates to K562.
The test system of test [8] is UO-31.
For test [9], the system named is UACC-62.
Test [10] deals with HOP-92.
Test [11] concerns EKVX.
Test [12] relates to SN12C.
In test [13] the test system is HOP-62.
Test [14] has as its system MOLT-4.
Test [15] deals with BT-549.
Test [16] relates to NCI-H226.
Test [17] relates to HCT-15.
The test system of test [18] is SK-MEL-28.
The test system of test [19] is SF-268.

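Exposure lasted 48 hours, with cells grown in 96-well plates and compounds tested at five concentrations. Here, GI50 denotes the concentration required for 50% inhibition of growth.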 Active and inactive are the calls of the source. Cut-off read from the data, not from the text of the source: active = GI50 up to about 1.1 µM and inactive = higher.

What is called GI50 is the concentration at which growth is held to half of that of the control. For `CC(C)C[C@H](NC(=O)[C@H](Cc1cccc2ccccc12)NS(=O)(=O)c1cccc2cccnc12)B(O)O`, the GI50 in [1] is < 0.015 µM (active); in [2], < 0.01 µM (active); in [3] it was < 0.0151 µM (active); in test [4] it was < 0.01 µM (active); in test [5] it was < 0.0147 µM (active); in test [6], < 0.01 µM (active). For the same compound, the GI50 in [7] was < 0.0196 µM (active); in [8], 0.279 µM (active); in test [9] it was 0.0223 µM (active); in [10], 0.00726 µM (active); in test [11], 0.372 µM (active); in test [12], < 0.0122 µM (active). Further, the GI50 is 0.0444 µM (active) in test [13]; < 0.01 µM (active) in [14]; < 0.0306 µM (active) in test [15]; 0.000208 µM (active) in test [16]; 0.227 µM in test [17].
Regarding `N=C(CCl)NC1CN2CCC1CC2` (stereo not drawn), the GI50 in [1] is > 100 µM (inactive); in [2] it was > 100 µM (inactive); in [3], 42.3 µM (inactive); in test [4], > 100 µM (inactive); in [5], > 100 µM (inactive); in test [6], > 100 µM (inactive). Moreover, the GI50 in test [7] is > 100 µM (inactive); in test [9], > 100 µM (inactive); in test [10], > 100 µM (inactive); in [18] it was > 100 µM (inactive); in [11] it was 67.5 µM (inactive); in test [19], 92.9 µM (inactive). In addition, the GI50 in [12] was 66.7 µM (inactive); in [13], > 100 µM (inactive); in test [14], 39.7 µM (inactive); in [15], > 100 µM (inactive); in [16] it was > 100 µM (inactive); in test [17], over 100 µM.
With `O=C(O)CN1CCN2CCCCCN(CC1)CCN(CC(=O)O)CC2`, the GI50 in [2], in test [3], in test [4], in test [5], in [6] and in test [7] was > 100 µM (inactive) each time. In addition, the GI50 in test [8], in [9], in test [10], in test [18], in test [11] and in [12] was > 100 µM (inactive) throughout. Besides, the GI50 in test [13] was > 100 µM (inactive); in test [15], > 100 µM (inactive); in test [16], > 100 µM (inactive); in [17] it was over 100 µM.
Consider `N#CC1=C(N)N(/N=C/c2ccco2)C(c2ccco2)C1(C#N)C#N` (stereo not drawn), for which the GI50 in [1] was 10.7 µM (inactive); in test [2], 21.3 µM (inactive); in test [3], 20.5 µM (inactive); in test [4], 15.3 µM (inactive); in [5] it was 16 µM (inactive); in test [6] it was 18.4 µM (inactive). In addition, the GI50 in test [7] is 5.7 µM (inactive); in test [8] it was 18.6 µM (inactive); in test [9] it was 17.6 µM (inactive); in [10] it was 16.6 µM (inactive); in [11], 19.5 µM (inactive); in test [19], 24.6 µM (inactive). Moreover, the GI50 in [12] is 26.9 µM (inactive); in [13] it was 23.2 µM (inactive); in [14], 11.9 µM (inactive); in [15], 17.6 µM (inactive); in test [16], 18.6 µM (inactive); in [17], 15.3 µM.
As to `Cc1ccc2c3c(cnc2n1)C(=O)OCCN3C`, the GI50 in test [1], in test [2], in test [3], in test [4], in test [5] and in [6] was > 100 µM (inactive) each time. In addition, the GI50 in test [7], in test [8], in test [9], in test [10], in test [18] and in [11] was > 100 µM (inactive) throughout. Further, the GI50 was > 100 µM (inactive) in [19]; > 100 µM (inactive) in test [12]; > 100 µM (inactive) in test [13]; > 100 µM (inactive) in test [14]; > 100 µM (inactive) in [15]; over 100 µM in [17].
Consider `CN(/N=C/c1ccc(Cl)cc1)C1=NCCCCN1`, for which the GI50 in [2] is 72.1 µM (inactive); in test [3], > 100 µM (inactive); in [4] it was 53.2 µM (inactive); in [5], 56.9 µM (inactive); in test [6], > 100 µM (inactive); in [7] it was 18.9 µM (inactive). The GI50 was > 100 µM (inactive) in test [8]; 67.1 µM (inactive) in test [9]; 47.3 µM (inactive) in test [10]; > 100 µM (inactive) in [11]; > 100 µM (inactive) in test [19]; 81.5 µM (inactive) in test [12]. In addition, the GI50 in test [13] was > 100 µM (inactive); in test [14], 26.7 µM (inactive); in test [15], > 100 µM (inactive); in [16], > 100 µM (inactive); in [17], over 100 µM.
Turning to `CC(C)=CCC/C(C)=C/CC/C(C)=C/CC/C(C=O)=C/CC/C(C)=C\CC/C(C)=C/CC/C(C)=C/CC/C(C)=C/CC1=CC(=O)C=CC1=O`, the GI50 in test [2] is 56.4 µM (inactive); in test [3], 0.365 µM (active); in test [4], 56 µM (inactive); in test [5] it was > 100 µM (inactive); in test [6], > 100 µM (inactive); in [7] it was > 100 µM (inactive). For the same compound, the GI50 is > 100 µM (inactive) in test [8]; 21.1 µM (inactive) in test [9]; > 100 µM (inactive) in test [10]; > 100 µM (inactive) in [18]; > 100 µM (inactive) in [11]; > 100 µM (inactive) in [19]. Moreover, the GI50 was > 100 µM (inactive) in [12]; > 100 µM (inactive) in test [13]; 55.5 µM (inactive) in test [14]; > 100 µM (inactive) in test [15]; over 100 µM in [17].
Consider `COc1cc(C2CC(C)(O)Oc3cc4c(cc32)OCO4)cc(OC)c1OC` (stereo not drawn), for which the GI50 is 0.137 µM (active) in test [1]; 0.169 µM (active) in [2]; 0.321 µM (active) in test [3]; 0.208 µM (active) in [4]; 4.6 µM (inactive) in [5]; 0.166 µM (active) in test [6]. Besides, the GI50 was 0.386 µM (active) in test [7]; 0.23 µM (active) in test [9]; 2.56 µM (inactive) in test [10]; 0.569 µM (active) in [18]; 5.36 µM (inactive) in test [11]; 0.962 µM (active) in test [19]. Further, the concentration for 50% growth inhibition (GI50) is 0.977 µM (active) in test [12]; 0.501 µM (active) in [13]; 0.451 µM (active) in test [14]; 0.583 µM (active) in test [15]; 0.891 µM (active) in test [16]; 0.521 µM in [17].
Consider `NC(=S)NNCC(=O)CC(O)(C(F)(F)F)C(F)(F)Cl` (stereo not drawn), for which the GI50 in test [1] is 38.5 µM (inactive); in [2], > 100 µM (inactive); in test [3], > 100 µM (inactive); in test [4], > 100 µM (inactive); in [5], > 100 µM (inactive); in test [6], > 100 µM (inactive). Besides, the GI50 in test [7], in test [8], in test [9], in test [10], in test [18] and in [11] was > 100 µM (inactive) each time. Moreover, the GI50 in [14] is > 100 µM (inactive); in [15], > 100 µM (inactive); in test [16], > 100 µM (inactive); in test [17], over 100 µM.
With `CCOC(=O)c1nc2ccc(C(F)(F)F)cc2nc1Nc1cc(OC)c(OC)c(OC)c1`, the GI50 in test [1], in [2], in test [3], in test [4], in [5] and in test [6] was > 100 µM (inactive) throughout. The GI50 in [7], in test [8], in test [9], in test [10], in test [18] and in [11] was > 100 µM (inactive) in each case. In addition, the GI50 in [19] is > 100 µM (inactive); in [12], > 100 µM (inactive); in test [13], > 100 µM (inactive); in [14], > 100 µM (inactive); in test [15], > 100 µM (inactive); in test [17] it was over 100 µM.
Consider `C=C1CC(Cn2ccc(=O)[nH]c2=O)(c2ccc(-c3ccccc3)cc2)OC1=O` (stereo not drawn), for which the GI50 in test [2] was 1.69 µM (inactive); in test [3], 0.916 µM (active); in test [4], 1.16 µM (inactive); in [5] it was 2.86 µM (inactive); in test [6], 1.03 µM (active); in test [7] it was 0.208 µM (active). Moreover, the GI50 in test [8] is 6.64 µM (inactive); in test [9], 0.764 µM (active); in [10] it was 1.2 µM (inactive); in [18], 2.45 µM (inactive); in test [11], 12.2 µM (inactive); in test [19], 16.1 µM (inactive). The GI50 is 4.6 µM (inactive) in [12]; 15.2 µM (inactive) in test [13]; 1.5 µM (inactive) in test [14]; 1.86 µM (inactive) in test [15]; 4.6 µM (inactive) in [16]; 1.65 µM in test [17].
Regarding `CC(=O)N[C@H]1CCCC[C@@H]1OC(C)=O`, the GI50 in [1], in test [2], in test [3], in test [4], in test [5] and in test [6] was > 100 µM (inactive) each time. The GI50 in test [7], in [9], in [10], in test [18], in test [11] and in test [12] was > 100 µM (inactive) throughout. The GI50 in [13] is > 100 µM (inactive); in [14], > 100 µM (inactive); in test [15], > 100 µM (inactive); in test [16], > 100 µM (inactive); in [17], over 100 µM.
